The values below come from patent publication US11420970B1 (NOVARTIS AG, priority 2019, dated 2022).

In assay [1] the target is NSD2 [1-1365] (Homo sapiens (Human), UniProt O96028). Briefly: LC-MS/MS-based NSD2 enzymatic assay (SAH production). It is filed as biochemical. The conditions noted are these: read-out: NSD2 IC50. The essentials: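 SAH formed was measured by LC-MS/MS using d4-SAH as internal standard and an SAH calibration curve. Compounds were preincubated 20 min with NSD2 [1-1365] and SAM; mouse-liver nucleosome then started a 90 min room-temperature reaction (8 nM enzyme, 1 μM SAM, 400 nM nucleosome final, pH 8.0), stopped with TFA.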
Chain of NSD2 [1-1365] (O96028 whole entry): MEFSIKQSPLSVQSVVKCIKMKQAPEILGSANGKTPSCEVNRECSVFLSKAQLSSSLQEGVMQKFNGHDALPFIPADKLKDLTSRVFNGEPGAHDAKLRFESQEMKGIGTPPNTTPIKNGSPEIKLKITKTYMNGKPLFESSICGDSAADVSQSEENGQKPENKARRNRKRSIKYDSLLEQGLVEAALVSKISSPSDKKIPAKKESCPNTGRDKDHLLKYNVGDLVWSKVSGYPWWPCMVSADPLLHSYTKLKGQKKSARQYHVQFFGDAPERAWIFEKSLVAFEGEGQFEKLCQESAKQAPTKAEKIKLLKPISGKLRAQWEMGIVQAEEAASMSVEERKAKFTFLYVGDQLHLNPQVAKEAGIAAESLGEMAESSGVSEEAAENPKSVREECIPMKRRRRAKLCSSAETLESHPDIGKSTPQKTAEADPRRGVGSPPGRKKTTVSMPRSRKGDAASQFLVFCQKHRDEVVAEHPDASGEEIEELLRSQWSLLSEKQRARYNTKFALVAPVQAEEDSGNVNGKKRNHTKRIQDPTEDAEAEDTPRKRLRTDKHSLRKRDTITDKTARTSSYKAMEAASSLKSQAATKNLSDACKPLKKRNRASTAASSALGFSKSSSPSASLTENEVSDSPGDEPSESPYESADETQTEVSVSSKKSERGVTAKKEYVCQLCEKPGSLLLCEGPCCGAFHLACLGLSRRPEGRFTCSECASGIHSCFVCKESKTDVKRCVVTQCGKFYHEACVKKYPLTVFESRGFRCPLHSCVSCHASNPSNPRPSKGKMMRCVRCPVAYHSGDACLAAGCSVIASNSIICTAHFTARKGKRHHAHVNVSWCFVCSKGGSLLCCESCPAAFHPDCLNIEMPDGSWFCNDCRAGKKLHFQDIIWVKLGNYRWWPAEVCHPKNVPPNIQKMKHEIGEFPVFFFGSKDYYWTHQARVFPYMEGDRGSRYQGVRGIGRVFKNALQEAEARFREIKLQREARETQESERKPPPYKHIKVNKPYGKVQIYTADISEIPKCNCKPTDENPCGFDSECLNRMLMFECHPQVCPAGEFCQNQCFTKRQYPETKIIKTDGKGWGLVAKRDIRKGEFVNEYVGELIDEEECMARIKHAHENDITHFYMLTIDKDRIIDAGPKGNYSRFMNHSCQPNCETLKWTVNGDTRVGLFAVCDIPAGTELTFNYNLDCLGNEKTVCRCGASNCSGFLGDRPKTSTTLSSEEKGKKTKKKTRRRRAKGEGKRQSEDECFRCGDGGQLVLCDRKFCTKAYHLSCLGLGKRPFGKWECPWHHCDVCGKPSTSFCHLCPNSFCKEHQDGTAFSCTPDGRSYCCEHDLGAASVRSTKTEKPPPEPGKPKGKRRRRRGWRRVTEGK

The test system of assay [2] is cellular H3K36me2 level in multiple myeloma cell line KMS11 (t(4;14)+). Briefly: H3K36me2 cellular ELISA assay in KMS11-Par line. It counts as cell-based. The note with it: Homo sapiens, KMS-11, ELISA, read-out: H3K36me2 ELISA in KMS11-Par. The protocol: H3K36Me2 Cellular ELISA Assay in KMS11-Par Line
An ELISA (enzyme-linked immunosorbent assay) based assay was used to test the ability of candidate compound to reduce cellular H3K36me2 level in multiple myeloma cell line KMS11 (t(4;14)+). KMS11 (Horizon Discovery Ltd.) cells are maintained in RPM11640 media with 12.5% FBS and 50 U/ml Penicillin-Streptomycin. For assay compound treatment, single cell suspension was prepared in Opti-MEM supplemented with B-27 and N2 supplement (Invitrogen 11058-021, 17504-044, 17502-048) for ELISA and in maintenance media for cellTiter Glo (CTG) viability assay. One day prior to cell treatment, 1,250 KMS11 cells were seeded into 384-well Greiner CellStar TC plate (Greiner #781086) at the final volume of 30 μL/well.
Cells were treated with tested compounds at the desired concentration for 72 hours. Crude histone lysate was extracted by 0.4M HCl following neutralization by 0.5M Sodium phosphate, dibasic (Na2HPO4), pH ˜12.5. Equal amount of histone lysate was loaded to Corning 384-well high biding plate (Corning #3577, black) for H3K36m2 and to Thermo 384-well high binding Nunc plate (Thermo #460372, white) for total H3.
Histone bound plates were washed and blocked with 5% BSA. […] The abundance of H3K36me2 and total H3 was measured by Chemiluminesce on a plate reader. Cell viability was monitored on a parallel seeded plate with CellTiter-Glo reagent (Promega #G7573).

The mark [3] stands for this setting: NSD2 biochemical activity, class symbols.
Where [4] appears, read: KMS11-Par line (t(4;14)+), 72 hours treatment.

Where two headings read alike, the source gives them in different places.

With `Cn1ccc(C[C@@]2(N)CCCN(c3cnc(-c4ccc(F)cc4)cc3Cn3cnc4c(N)nccc43)C2)n1` [Example 49, (S)-1-((5-(3-amino-3-((1-methyl-1H-pyrazol-3-yl)methyl)piperidin-1-yl)-2-(4-fluorophenyl)pyridin-4-yl)methyl)-1H-imidazo[4,5-c]pyridin-4-amine], the IC50 in assay [1] (setting [3]) is 1 to 10 nM; in assay [2] (setting [4]) it was 12700 nM.

`COc1ccc(-c2cc(Cn3cnc4c(N)nccc43)c(N3CCC[C@](N)(Cc4ccccn4)C3)cn2)cc1F` [Example 50, (S)-1-((5-(3-amino-3-(pyridin-2-ylmethyl)piperidin-1-yl)-2-(3-fluoro-4-methoxyphenyl)pyridin-4-yl)methyl)-1H-imidazo[4,5-c]pyridin-4-amine]: the IC50 in assay [1] (setting [3]) was 1 to 10 nM; in assay [2] (setting [4]), 895 nM.

Consider `Nc1nccc2c1ncn2Cc1cc(-c2ccc(F)c(F)c2)ncc1N1CCC[C@](N)(Cc2ccccn2)C1` [Example 51, (S)-1-((5-(3-amino-3-(pyridin-2-ylmethyl)piperidin-1-yl)-2-(3,4-difluorophenyl)pyridin-4-yl)methyl)-1H-imidazo[4,5-c]pyridin-4-amine], for which the figures for the IC50 in assay [1] (setting [3]) and in assay [2] (setting [4]) were 1 to 10 nM and 1530 nM, respectively.

With `Cc1cccc(C[C@@]2(N)CCCN(c3cnc(-c4ccc(F)c(F)c4)cc3Cn3cnc4c(N)ncnc43)C2)n1` [Example 55, (S)-9-((5-(3-amino-3-((6-methylpyridin-2-yl)methyl)piperidin-1-yl)-2-(3,4-difluorophenyl)pyridin-4-yl)methyl)-9H-purin-6-amine], the IC50 in assay [1] (setting [3]) is 1 to 10 nM; in assay [2] (setting [4]), 910 nM.

Regarding `COc1ccc(-c2cc(Cn3cnc4c(N)nccc43)c(N3CCC[C@](N)(Cc4nccs4)C3)cn2)cc1F` [Example 57, (S)-1-((5-(3-amino-3-(thiazol-2-ylmethyl)piperidin-1-yl)-2-(3-fluoro-4-methoxyphenyl)pyridin-4-yl)methyl)-1H-imidazo[4,5-c]pyridin-4-amine], the results for the IC50 in assay [1] (setting [3]) and in assay [2] (setting [4]) were 1 to 10 nM and 610 nM, respectively.

Take `Nc1nccc2c1ncn2Cc1cc(-c2ccc(F)c(F)c2)ncc1N1CCC[C@](N)(Cc2ncco2)C1` [Example 63, (S)-1-((5-(3-amino-3-(oxazol-2-ylmethyl)piperidin-1-yl)-2-(3,4-difluorophenyl)pyridin-4-yl)methyl)-1H-imidazo[4,5-c]pyridin-4-amine]: the IC50 was 10 to 1000 nM in assay [1] (setting [3]) and 7910 nM in assay [2] (setting [4]).

For the compound `Nc1ncnc2c1ncn2Cc1cc(-c2ccc(NC(=O)CCBr)cc2)ncc1N1CCCC(N)(CC(F)F)C1` (centres unmarked) [Example 64, N-(4-(5-(3-amino-3-(2,2-difluoroethyl)piperidin-1-yl)-4-((6-amino-9H-purin-9-yl)methyl)pyridin-2-yl)phenyl)-3-bromopropanamide], the IC50 is 10 to 1000 nM in assay [1] (setting [3]) and 7000 nM in assay [2] (setting [4]).

As for `C[C@@H](c1ccccn1)[C@@]1(N)CCCN(c2cnc(-c3ccc(F)c(F)c3)cc2Cn2cnc3c(N)ncnc32)C1` [Example 65, 9-((5-((S)-3-amino-3-((R)-1-(pyridin-2-yl)ethyl)piperidin-1-yl)-2-(3,4-difluorophenyl)pyridin-4-yl)methyl)-9H-purin-6-amine], the IC50 in assay [1] (setting [3]) is 10 to 1000 nM; in assay [2] (setting [4]) it was 1130 nM.

Consider `Nc1ncnc2c1ncn2Cc1cc(-c2ccc(F)c(F)c2)ncc1N1CCCC(N)(Cc2cccc(F)n2)C1` (centres unmarked) [Example 69, 9-((5-(3-amino-3-((6-fluoropyridin-2-yl)methyl)piperidin-1-yl)-2-(3,4-difluorophenyl)pyridin-4-yl)methyl)-9H-purin-6-amine], for which the figures for the IC50 in assay [1] (setting [3]) and in assay [2] (setting [4]) were 10 to 1000 nM and 1150 nM, respectively.

As to `Nc1ncnc2c1ncn2Cc1cc(-c2ccc(F)c(F)c2)ncc1N1CCC[C@](N)(Cc2cnccn2)C1` [Example 74, (S)-9-((5-(3-amino-3-(pyrazin-2-ylmethyl)piperidin-1-yl)-2-(3,4-difluorophenyl)pyridin-4-yl)methyl)-9H-purin-6-amine], the IC50 is 10 to 1000 nM in assay [1] (setting [3]) and 4220 nM in assay [2] (setting [4]).

As for `C=CC(=O)Nc1ccc(-c2cc(Cn3cnc4c(N)ncnc43)c(N3CCCC(N)(CC(F)F)C3)cn2)cc1` (centres unmarked) [Example 76, N-(4-(5-(3-amino-3-(2,2-difluoroethyl)piperidin-1-yl)-4-((6-amino-9H-purin-9-yl)methyl)pyridin-2-yl)phenyl)acrylamide], the IC50 in assay [1] (setting [3]) was 10 to 1000 nM; in assay [2] (setting [4]) it was 2120 nM.

On to `CCO[C@H](C)C1(N)CCCN(c2cnc(-c3ccc(F)c(F)c3)cc2Cn2cnc3c(N)ncnc32)C1` (stereo partly drawn) [Example 99, 9-((5-(3-amino-3-((R)-1-ethoxyethyl)piperidin-1-yl)-2-(3,4-difluorophenyl)pyridin-4-yl)methyl)-9H-purin-6-amine], for which the IC50 in assay [1] (setting [3]) is 10 to 1000 nM; in assay [2] (setting [4]), 21000 nM.

On to `Cc1cc2c(cnn2C)cc1-c1cc(Cn2cnc3c(N)ncnc32)c(N2CCC[C@](N)([C@@H](O)C(F)F)C2)cn1` [Example 136, (R)-1-((R)-3-amino-1-(4-((6-amino-9H-purin-9-yl)methyl)-6-(1,6-dimethyl-1H-indazol-5-yl)pyridin-3-yl)piperidin-3-yl)-2,2-difluoroethan-1-ol], for which the IC50 in assay [1] (setting [3]) is 10 to 1000 nM; in assay [2] (setting [4]) it was 8800 nM.

With `Cc1cccc(C2(N)CCCN(c3cnc(-c4ccc(F)c(F)c4)cc3Cn3cnc4c(N)ncnc43)C2)n1` (centres unmarked) [Example 177, 9-((5-(3-amino-3-(6-methylpyridin-2-yl)piperidin-1-yl)-2-(3,4-difluorophenyl)pyridin-4-yl)methyl)-9H-purin-6-amine], the IC50 in assay [1] is 1 to 10 nM; in assay [2] (KMS11-Par line, 72 hours), 407 nM.

With `Nc1ncnc2c1ncn2Cc1cc(-c2ccc(F)c(F)c2)ncc1N1CCC[C@](N)(c2ncccc2F)C1` [Example 199, (R)-9-((5-(3-amino-3-(3-fluoropyridin-2-yl)piperidin-1-yl)-2-(3,4-difluorophenyl)pyridin-4-yl)methyl)-9H-purin-6-amine], the IC50 in assay [1] is 1 to 10 nM; in assay [2] (KMS11-Par line, 72 hours) it was 846 nM.

As to `CCc1cccc([C@@]2(N)CCCN(c3cnc(-c4ccc(F)cc4)cc3Cn3cnc4c(N)ncnc43)C2)n1` [Example 202, (R)-9-((5-(3-amino-3-(6-ethylpyridin-2-yl)piperidin-1-yl)-2-(4-fluorophenyl)pyridin-4-yl)methyl)-9H-purin-6-amine], the IC50 was 1 to 10 nM in assay [1] and 264 nM in assay [2] (KMS11-Par line, 72 hours).

`Nc1ncnc2c1ncn2Cc1cc(-c2ccc(F)cc2)ncc1N1CCC[C@](N)(c2cccc(C(F)F)n2)C1` [Example 203, (R)-9-((5-(3-amino-3-(6-(difluoromethyl)pyridin-2-yl)piperidin-1-yl)-2-(4-fluorophenyl)pyridin-4-yl)methyl)-9H-purin-6-amine]: the IC50 in assay [1] is 1 to 10 nM; in assay [2] (KMS11-Par line, 72 hours), 389 nM.

Turning to `Nc1ncnc2c1ncn2Cc1cc(-c2ccc(F)cc2)ncc1N1CCCC(N)(c2cccc(Cl)n2)C1` (centres unmarked) [Example 205, 9-((5-(3-amino-3-(6-chloropyridin-2-yl)piperidin-1-yl)-2-(4-fluorophenyl)pyridin-4-yl)methyl)-9H-purin-6-amine], the IC50 is 1 to 10 nM in assay [1] and 632 nM in assay [2] (KMS11-Par line, 72 hours).

`Nc1ncnc2c1ncn2Cc1cc(-c2ccc(F)c(F)c2)ncc1N1CCC[C@](N)(c2ccncc2)C1` [Example 245, (S)-9-((5-(3-amino-3-(pyridin-4-yl)piperidin-1-yl)-2-(3,4-difluorophenyl)pyridin-4-yl)methyl)-9H-purin-6-amine]: the IC50 in assay [1] is 10 to 1000 nM; in assay [2] (KMS11-Par line, 72 hours), 2150 nM.

In the case of `Nc1ncnc2c1ncn2Cc1cc(-c2ccc(F)c(F)c2)ncc1N1CCC[C@](N)(c2ccnc(Cl)c2)C1` [Example 246, (S)-9-((5-(3-amino-3-(2-chloropyridin-4-yl)piperidin-1-yl)-2-(3,4-difluorophenyl)pyridin-4-yl)methyl)-9H-purin-6-amine], the IC50 in assay [1] was 10 to 1000 nM; in assay [2] (KMS11-Par line, 72 hours), 16700 nM.

Take `Cc1cc([C@@]2(N)CCCN(c3cnc(-c4ccc(F)c(F)c4)cc3Cn3cnc4c(N)ncnc43)C2)ccn1` [Example 247, (S)-9-((5-(3-amino-3-(2-methylpyridin-4-yl)piperidin-1-yl)-2-(3,4-difluorophenyl)pyridin-4-yl)methyl)-9H-purin-6-amine]: the IC50 in assay [1] was 10 to 1000 nM; in assay [2] (KMS11-Par line, 72 hours), 33300 nM.

In the case of `Nc1ncnc2c1ncn2Cc1cc(-c2ccc(F)c(F)c2)ncc1N1CCC[C@](N)(c2ccncc2F)C1` [Example 248, (S)-9-((5-(3-amino-3-(3-fluoropyridin-4-yl)piperidin-1-yl)-2-(3,4-difluorophenyl)pyridin-4-yl)methyl)-9H-purin-6-amine], the IC50 in assay [1] was 10 to 1000 nM; in assay [2] (KMS11-Par line, 72 hours), 2880 nM.
